Read-outs that look alike come from different tables or passages of the source.
Experiments:
[1] = target: T1, human histamine H3 receptor (Homo sapiens, UniProt Q9Y5N1); experiment: Histamine analog coupling inhibition test; format: binding
T1 construct: expressed in transfected cells; host or cells: HEK293 and CHO-K1
Source text: A cDNA sequence [International Patent Application WO00/3916 Specification No. 4] which encodes human histamine H3 receptor was cloned using the expression vectors pCR2.1, pEF1x (product of Invitrogen), and pCI-neo (product of Promega Inc.). The expression vector obtained was transfected to the host cells, HEK293 and CHO-K1 (American type culture collection), using the cationic lipid method [Proceedings of the National Academy of Sciences of the United States of America, Vol. 84, p. 7413 (1987), and histamine H3 receptor expression cells were thus obtained.
A film preparation made from the cells which represented the histamine H3 receptor, the test compound (the compound of Example 1) and 20,000 cpm of [3H]N-α-methylhistamine (product of NEN) were incubated in an assay buffer solution (50 mM Tris buffer solution, pH 7.4) at 25° C. for 2 hours, and filtered on a glass filter GF/C. After washing by 50 mM Tris buffer solution, pH7.4, the radioactivity on the glass filter was found. Non-specific linkages were measured in the presence of 10 microM thioperamide (product of SIGAM), and the 50% inhibition concentration (IC50 value) of the test compound with respect to specific N-α-methylhistamine linkages was found (Molecular Pharmacology, Vol. 55, p. 1101 (1999)).

[2] = Brain/cerebrospinal fluid activity test; format: in vivo, rat; conditions: SD type male rats, 2 hours after oral administration (10 mg/kg); for concentration at 2 h: rat
Experimental: The test compound (the compound of Example 1) was administered orally or intravenously to SD type male rats (7-10 weeks old, 200-400 g), and exsanguination was performed from the abdominal aorta under ether anesthesia using a heparin treatment syringe at a predetermined time. The skin at the back of the head was cut open, pierced with a 30G dental needle between the cervical vertebrae, and inserted into the subarachnoid space. 50-100 μL of cerebrospinal fluid was extracted by a 1 mL syringe via a tube connected to the 30G needle, and the brain was extracted. A blood sample was centrifuged (4° C., 6000 rpm, 10 minutes), and three times the amount of ethanol (containing an internal reference) was added to the plasma and stirred. 2 mL of water was added to a brain sample, homogenized, a part was removed, and three times the amount of ethanol (containing an internal reference) was added and stirred. The cerebrospinal fluid was taken, three times the amount of ethanol (containing an internal reference) was added, and stirred. The above sample was left at −20° C. for 20 minutes, centrifuged (4° C., 12,000 g, 10 minutes), the supernatant liquid was analyzed by LC/MS/MS, and the concentration in plasma, brain and cerebrospinal fluid was measured by the relative calibration curve method.

[3] = Kinetic test (plasma concentration after oral or intravenous administration); format: in vivo; conditions: rat, SD type male rats, fasted overnight
Experimental: The test compound (the compound of Example 1) was administered orally or intravenously to SD type male rats (7-10 weeks old, 200-400 g) which had abstained from food overnight, and about 100 μL of blood was collected from a caudal vein using a heparinized capillary tube at a predetermined time. The blood was centrifuged (4° C., 6000 rpm, 10 minutes), and plasma was obtained. Three times the amount of ethanol (containing an internal reference) was added to the plasma, stirred, left for 20 minutes at −20° C., and centrifuged (4° C., 10,000 rpm, 10 minutes). The supernatant liquid was analyzed by LC/MS/MS, and the plasma concentration was measured by the relative calibration curve method.

histamine H3 receptor = target: T2, histamine H3 receptor (Rattus norvegicus, UniProt Q9QYN8); experiment: Antagonism test of drinking behavior induced by R-α-methylhistamine, a histamine H3 receptor selective agonist; format: in vivo; conditions: male SD rat, 10 mg/kg oral 2 hours before R-α-methylhistamine, measured 1 hour after
T2 construct: from tissue; host or cells: living male SD rat (brain, third ventricle agonist administration)
T2 sequence (Q9QYN8 whole entry): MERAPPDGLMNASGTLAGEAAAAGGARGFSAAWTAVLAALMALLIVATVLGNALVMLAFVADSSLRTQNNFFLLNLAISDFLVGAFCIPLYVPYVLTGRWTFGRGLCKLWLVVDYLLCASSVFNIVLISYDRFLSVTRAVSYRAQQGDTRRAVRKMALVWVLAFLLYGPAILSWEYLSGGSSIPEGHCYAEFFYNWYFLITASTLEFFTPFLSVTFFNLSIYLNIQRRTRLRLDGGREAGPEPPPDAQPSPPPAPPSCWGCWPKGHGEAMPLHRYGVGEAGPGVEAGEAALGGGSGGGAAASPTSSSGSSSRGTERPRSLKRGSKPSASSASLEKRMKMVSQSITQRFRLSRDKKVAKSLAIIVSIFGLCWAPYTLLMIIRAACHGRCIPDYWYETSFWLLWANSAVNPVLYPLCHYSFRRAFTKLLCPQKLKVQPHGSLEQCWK
Experimental: Under ketamine/xylazine anaesthesia (74 mg/kg and 11 mg/kg intraperitoneal single-dose administration), a chronic guide cannula (26 gauge, length 11 mm) was inserted in the ventriculus tertius of a male SD rat (7-10 weeks old, 200-300 g) using a brain stereotaxis apparatus, and fixed by dental resin. The position of the tip of the guide cannula was 2.2 mm back from the bregma, and at a depth of 8 mm from the skull surface on the median line. After about 1 week convalescence, R-α-methylhistamine (0.3 μg/1 μL/head, 30% propylene glycol solution) was administered to the ventriculus tertius. The test compound (the compound of Example 1) suspended in 0.5% methylcellulose aqueous solution was administered orally 2 hours before the R-α-methylhistamine administration, and the drinking water amount was measured 1 hour after R-α-methylhistamine administration.

T1 sequence (Q9Y5N1 whole entry): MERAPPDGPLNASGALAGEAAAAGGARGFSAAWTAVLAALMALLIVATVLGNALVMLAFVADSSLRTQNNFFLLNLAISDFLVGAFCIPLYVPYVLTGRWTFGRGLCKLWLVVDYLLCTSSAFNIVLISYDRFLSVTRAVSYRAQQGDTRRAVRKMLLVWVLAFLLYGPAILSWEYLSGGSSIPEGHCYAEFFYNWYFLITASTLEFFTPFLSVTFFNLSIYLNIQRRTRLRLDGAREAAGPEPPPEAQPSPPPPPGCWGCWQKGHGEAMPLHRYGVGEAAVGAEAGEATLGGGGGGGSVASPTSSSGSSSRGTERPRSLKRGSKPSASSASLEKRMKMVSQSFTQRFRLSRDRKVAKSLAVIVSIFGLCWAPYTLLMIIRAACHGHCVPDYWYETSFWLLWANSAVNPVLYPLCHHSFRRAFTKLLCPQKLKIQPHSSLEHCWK

| SMILES | melting point | further results |
| --- | --- | --- |
| Cc1nc2ncccc2c(=O)n1-c1ccc(OCCCN2CCC[C@H](C)C2)cc1.Cl | 255 to 262 °C |  |
| Cc1nc2ccncc2c(=O)n1-c1ccc(OCCCN2CCC[C@H]2C)cc1 [Example 266, 2-methyl-3-(4-{3-[(2R)-2-methylpyrrolidin-1-yl]propoxy}phenyl)pyrido[4,3-d]pyrimidin-4(3H)-one] | 238 to 250 °C |  |
| CCc1nc2ncccc2c(=O)n1-c1ccc(OCCCN2CCC[C@H](C)C2)cc1.Cl | 245 to 252 °C |  |
| CCc1nc2ncccc2c(=O)n1-c1ccc(OC2CCN(C3CCC3)CC2)cc1 [Example 111, 3-{4-[(1-cyclobutyl-4-piperidinyl)oxy]phenyl}-2-ethylpyrido[2,3-d]pyrimidin-4(3H)-one] | 146 to 148 °C |  |
| Cc1nc2cc(F)ccc2c(=O)n1-c1ccc(OC2CCN(C3CCC3)CC2)cc1 [Example 233, 3-{4-[(1-cyclobutylpiperidin-4-yl)oxy]phenyl}-7-fluoro-2-methyl-4(3H)-quinazolinone] | 163 to 166 °C |  |
| Cc1nc2ccncc2c(=O)n1-c1ccc(OC2CCN(C3CCCC3)CC2)cc1 [Example 101, 3-{4-[(1-cyclopentyl-4-piperidinyl)oxy]phenyl}-2-methylpyrido[4,3-d]pyrimidin-4(3H)-one] | 140 to 143 °C |  |
| COc1ccc2nc(C)n(-c3ccc(OCCCN4CCC[C@@H]4C)cc3)c(=O)c2c1 [Example 144, 6-methoxy-2-methyl-3-(4-{3-[(2S)-2-methylpyrrolidin-1-yl]propoxy}phenyl)-4(3H)-quinazolinone] | 102 to 106 °C |  |
| CCc1nc2ccccc2c(=O)n1-c1ccc(OCCCN2CCCCC2)cc1 [Example 1, 2-ethyl-3-{4-[3-(1-piperidinyl)propoxy]phenyl}-4(3H)-quinazolinone] |  | IC50 ([1]; [3H]N-α-methylhistamine, preparation from histamine H3 receptor expression cells, 50 mM Tris pH 7.4, 25° C., 2 hours, read-out: 50% inhibition concentration (IC50 value) with respect to specific N-α-methylhistamine linkages): 15 nM; binding of N-α-methylhistamine to the histamine H3 receptor ([1]; summary in words of the binding test): strongly prevented binding; intracerebral concentration [2]: 3.16 nmol/g; concentration at 2 h ([2]; cerebrospinal fluid, read-out: cerebrospinal fluid concentration): 142 nM; concentration at 2 h ([2]; plasma, read-out: plasma concentration): 2320 nM; bioavailability [3]: 60%; half-life ([3]; read-out: half-life in blood (converted)): 6.3 h; increase in drinking water amount due to R-α-methylhistamine administered to the ventriculus tertius (histamine H3 receptor): significantly suppressed |
| COc1ccc2nc(C)n(-c3ccc(OC4CCN(C5CCC5)CC4)cc3)c(=O)c2c1 [Example 228, 3-{4-[(1-cyclobutylpiperidin-4-yl)oxy]phenyl}-6-methoxy-2-methyl-4(3H)-quinazolinone] | 171 to 173 °C |  |
| Cc1nc2ccc(F)cc2c(=O)n1-c1ccc(OC2CCN(C3CCC3)CC2)cc1 [Example 232, 3-{4-[(1-cyclobutylpiperidin-4-yl)oxy]phenyl}-6-fluoro-2-methyl-4(3H)-quinazolinone] | 122 to 125 °C |  |
| COc1cc2c(=O)n(-c3ccc(OCCCN4CCCCC4)cc3)c(C)nc2cn1 [Example 199, 6-methoxy-2-methyl-3-[4-(3-piperidin-1-ylpropoxy)phenyl]pyrido[3,4-d]pyrimidin-4(3H)-one] | 145 to 147 °C |  |
| COc1cc2c(=O)n(-c3ccc(OCCCN4CCCC4)cc3)c(C)nc2cn1 [Example 200, 6-methoxy-2-methyl-3-[4-(3-pyrrolidin-1-ylpropoxy)phenyl]pyrido[3,4-d]-pyrimidin-4(3H)-one] | 123 to 126 °C |  |
| COc1ccc2c(=O)n(-c3ccc(OCCCN4CCC[C@H](C)C4)cc3)c(C)nc2c1 [Example 170, 7-methoxy-2-methyl-3-(4-{3-[(3S)-3-methyl-piperidin-1-yl]propoxy}phenyl)-4(3H)-quinazolinone] | 94 to 96 °C |  |
| COc1ccc2nc(C)n(-c3ccc(OCCCN4CCCCC4)cc3)c(=O)c2c1 [Example 36, 6-methoxy-2-methyl-3-{4-[3-(1-piperidinyl)propoxy]phenyl}-4(3H)-quinazolinone] | 136 to 138 °C |  |
| COc1cccc2nc(C)n(-c3ccc(OCCCN4CCC[C@H](C)C4)cc3)c(=O)c12 [Example 164, 5-methoxy-2-methyl-3-(4-{3-[(3S)-3-methylpiperidin-1-yl]propoxy}phenyl)-4(3H)-quinazolinone] | 144 to 146 °C |  |
| CCc1nc2ccncc2c(=O)n1-c1ccc(OC2CCN(C3CCC3)CC2)cc1 [Example 109, 3-{4-[(1-cyclobutyl-4-piperidinyl)oxy]phenyl}-2-ethylpyrido[4,3-d]pyrimidin-4(3H)-one] | 186 to 189 °C |  |
| COc1ccc2nc(C)n(-c3ccc(OCCCN4CCC[C@H]4C)cc3)c(=O)c2c1 [Example 172, 6-methoxy-2-methyl-3-(4-{3-[(2R)-2-methylpyrrolidin-1-yl]propoxy}phenyl)-4(3H)-quinazolinone] | 106 to 108 °C |  |
| Cc1nc2c(F)cccc2c(=O)n1-c1ccc(OC2CCN(C3CCC3)CC2)cc1 [Example 242, 3-{4-[(1-cyclobutylpiperidin-4-yl)oxy]phenyl}-8-fluoro-2-methyl-4(3H)-quinazolinone] | 177 to 179 °C |  |
| Cc1nc2cnccc2c(=O)n1-c1ccc(OC2CCN(C3CCC3)CC2)cc1 [Example 114, 3-{4-[(1-cyclobutyl-4-piperidinyl)oxy]phenyl}-2-methylpyrido[3,4-d]pyrimidin-4(3H)-one] | 169 to 171 °C |  |
| Cc1nc2cnc(F)cc2c(=O)n1-c1ccc(OC2CCN(C3CCC3)CC2)cc1 [Example 230, 3-{4-[(1-cyclobutyl-piperidin-4-yl)oxy]phenyl}-6-fluoro-2-methylpyrido[3,4-d]pyrimidin-4(3H)-one] | 161 to 163 °C |  |
| Cc1nc2cccc(F)c2c(=O)n1-c1ccc(OCCCN2CCCCC2)cc1 [Example 26, 5-fluoro-2-methyl-3-{4-[3-(1-piperidinyl)propoxy]phenyl}-4(3H)-quinazolinone] | 141 to 145 °C |  |
| Cc1nc2cccc(F)c2c(=O)n1-c1ccc(OCCCN2CCC[C@H]2C)cc1 [Example 260, 5-fluoro-2-methyl-3-(4-{3-[(2R)-2-methylpyrrolidin-1-yl]propoxy}phenyl)-4(3H)-quinazolinone] | 125 to 127 °C |  |

From US8268842B2, “Fused ring 4-oxopyrimidine derivative” (MSD K.K., priority 2004, dated 2012)
